For orientation: EC50 means the midpoint of the concentration-response curve.

A value given as a limit tells only on which side of the number the result lay.

This note sets out measurements from patent publication US20260355323A1, “CEREBLON-RECRUITING BCL-XL/BCL-2 DUAL DEGRADERS” (University of Florida Research Foundation, Incorporated, priority 2022, published 2026).

In assay [1] the test system is RS4;11 acute lymphoblastic leukemia cells. Put plainly: Cell viability, tetrazolium-based MTS assay, RS4;11. As to conditions: Homo sapiens, RS4;11, 48 h, read-out: Anti-Cancer Activity EC50 (48 hr), RS4. On the procedure: (§1) Acute lymphoblastic leukemia cells (MOLT-4 and RS4;11) were incubated with increasing concentrations of Bcl-xL/Bcl-2 degraders for 48 h. Cell viability was measured by tetrazolium-based MTS assay.
In general terms: Formazan colour is commonly taken as a measure of viable cells.

A further assay has as its system WI-38 NC. Put plainly: Senolytic activity, cell viability (PrestoBlue HS), WI-38 NC. It is filed as cell-based. As to conditions: Homo sapiens, 72 h. On the procedure:
(§2) WI-38 and HUVEC cells were incubated with increasing concentrations of degraders for 72 h. Cell viability was measured using PrestoBlue HS cell viability reagent.

In assay [2] the test system is WI-38 irradiation-induced senescent cells (IR-SC). In words: Senolytic activity, cell viability (PrestoBlue HS), WI-38 IR-SC. The format is cell-based. As to conditions: Homo sapiens, 72 h. How it is done: To induce senescence in WI-38 and HUVEC, cells were subjected to x-ray irradiation at 20 Gray using X-RAD 320 biological irradiator. Following between 10 to 15 days after irradiation, senescence was induced in cells, and irradiation-induced senescent cells (IR-SC) were then used for cell viability and Western blotting tests.
as §2

Assay [3] relates to MOLT-4 acute lymphoblastic leukemia cells. In words: Cell viability, tetrazolium-based MTS assay, MOLT-4. As to conditions: Homo sapiens, MOLT-4, 48 h; read-out: Anti-Cancer Activity EC50 (48 hr), MOLT-4. How it is done:
as §1

`C[C@@]1(CN2CCN(C(=O)CCCN3CCN(c4ccc5c(c4)CN(C4CCC(=O)NC4=O)C5=O)CC3)CC2)CCC(c2ccc(Cl)cc2)=C(CN2CCN(c3ccc(C(=O)NS(=O)(=O)c4ccc(N[C@H](CCN5CCCOCC5)CSc5ccccc5)c(S(=O)(=O)C(F)(F)F)c4)cc3)CC2)C1` (stereo partly drawn) [Compound 2, N-((4-(((R)-4-(1,4-oxazepan-4-yl)-1-(phenylthio)butan-2-yl)amino)-3-((trifluoromethyl)sulfonyl)phenyl)sulfonyl)-4-(4-(((4R)-4′-chloro-4-((4-(4-(4-(2-(2,6-dioxopiperidin-3-yl)-1-oxoisoindolin-5-yl)piperazin-1-yl)butanoyl)piperazin-1-yl)methyl)-4-methyl-3,4,5,6-tetrahydro-[1,1′-biphenyl]-2-yl)methyl)piperazin-1-yl)benzamide]: the concentration giving a half-maximal response (EC50) in assay [1] is below 1 nM; with WI-38 NC, above 10000 nM; in assay [2], 1 to 10 nM; in assay [3], below 1 nM.

In the case of `C[C@@]1(CN2CCN(C(=O)CN3CCC(C#Cc4ccc5c(c4)CN(C4CCC(=O)NC4=O)C5=O)CC3)CC2)CCC(c2ccc(Cl)cc2)=C(CN2CCN(c3ccc(C(=O)NS(=O)(=O)c4ccc(N[C@H](CCN5CCCOCC5)CSc5ccccc5)c(S(=O)(=O)C(F)(F)F)c4)cc3)CC2)C1` (stereo partly drawn) [Compound 5, N-((4-(((R)-4-(1,4-oxazepan-4-yl)-1-(phenylthio)butan-2-yl)amino)-3-((trifluoromethyl)sulfonyl)phenyl)sulfonyl)-4-(4-(((4R)-4′-chloro-4-((4-(2-(4-((2-(2,6-dioxopiperidin-3-yl)-1-oxoisoindolin-5-yl)ethynyl)piperidin-1-yl)acetyl)piperazin-1-yl)methyl)-4-methyl-3,4,5,6-tetrahydro-[1,1′-biphenyl]-2-yl)methyl)piperazin-1-yl)benzamide], the EC50 was below 1 nM in assay [1], above 10000 nM in the assay on WI-38 NC, 10 to 100 nM in assay [2] and below 1 nM in assay [3].

Regarding `C[C@@]1(CN2CCN(C(=O)CN3CCN(CCCc4ccc5c(c4)CN(C4CCC(=O)NC4=O)C5=O)CC3)CC2)CCC(c2ccc(Cl)cc2)=C(CN2CCN(c3ccc(C(=O)NS(=O)(=O)c4ccc(N[C@H](CCN5CCCOCC5)CSc5ccccc5)c(S(=O)(=O)C(F)(F)F)c4)cc3)CC2)C1` (stereo partly drawn) [Compound 6, N-((4-(((R)-4-(1,4-oxazepan-4-yl)-1-(phenylthio)butan-2-yl)amino)-3-((trifluoromethyl)sulfonyl)phenyl)sulfonyl)-4-(4-(((4R)-4′-chloro-4-((4-(2-(4-(3-(2-(2,6-dioxopiperidin-3-yl)-1-oxoisoindolin-5-yl)propyl)piperazin-1-yl)acetyl)piperazin-1-yl)methyl)-4-methyl-3,4,5,6-tetrahydro-[1,1′-biphenyl]-2-yl)methyl)piperazin-1-yl)benzamide], the EC50 in assay [1] is below 1 nM; in the assay with WI-38 NC, above 10000 nM; in assay [2], 1 to 10 nM; in assay [3], below 1 nM.

As for `C[C@@]1(CN2CCN(C(=O)CN3CCC(CCc4ccc5c(c4)CN(C4CCC(=O)NC4=O)C5=O)CC3)CC2)CCC(c2ccc(Cl)cc2)=C(CN2CCN(c3ccc(C(=O)NS(=O)(=O)c4ccc(N[C@H](CCN5CCCOCC5)CSc5ccccc5)c(S(=O)(=O)C(F)(F)F)c4)cc3)CC2)C1` (stereo partly drawn) [Compound 7, N-((4-(((R)-4-(1,4-oxazepan-4-yl)-1-(phenylthio)butan-2-yl)amino)-3-((trifluoromethyl)sulfonyl)phenyl)sulfonyl)-4-(4-(((4R)-4′-chloro-4-((4-(2-(4-(2-(2-(2,6-dioxopiperidin-3-yl)-1-oxoisoindolin-5-yl)ethyl)piperidin-1-yl)acetyl)piperazin-1-yl)methyl)-4-methyl-3,4,5,6-tetrahydro-[1,1′-biphenyl]-2-yl)methyl)piperazin-1-yl)benzamide], the concentration for a half-maximal effect (EC50) was below 1 nM in assay [1], above 10000 nM with WI-38 NC, 1 to 10 nM in assay [2] and below 1 nM in assay [3].

For `C[C@@]1(CN2CCN(C(=O)CN3CCC(CN4CCN(c5ccc6c(c5)CN(C5CCC(=O)NC5=O)C6=O)CC4)CC3)CC2)CCC(c2ccc(Cl)cc2)=C(CN2CCN(c3ccc(C(=O)NS(=O)(=O)c4ccc(N[C@H](CCN5CCCOCC5)CSc5ccccc5)c(S(=O)(=O)C(F)(F)F)c4)cc3)CC2)C1` (stereo partly drawn) [Compound 8, N-((4-(((R)-4-(1,4-oxazepan-4-yl)-1-(phenylthio)butan-2-yl)amino)-3-((trifluoromethyl)sulfonyl)phenyl)sulfonyl)-4-(4-(((4R)-4′-chloro-4-((4-(2-(4-((4-(2-(2,6-dioxopiperidin-3-yl)-1-oxoisoindolin-5-yl)piperazin-1-yl)methyl)piperidin-1-yl)acetyl)piperazin-1-yl)methyl)-4-methyl-3,4,5,6-tetrahydro-[1,1′-biphenyl]-2-yl)methyl)piperazin-1-yl)benzamide], the EC50 in assay [1] was below 1 nM; in the assay on WI-38 NC it was above 10000 nM; in assay [2] it was 1 to 10 nM; in assay [3], below 1 nM.

In the case of `C[C@@]1(CN2CCN(C(=O)CCCN3CCC(CN4CCN(c5ccc6c(c5)CN(C5CCC(=O)NC5=O)C6=O)CC4)CC3)CC2)CCC(c2ccc(Cl)cc2)=C(CN2CCN(c3ccc(C(=O)NS(=O)(=O)c4ccc(N[C@H](CCN5CCCOCC5)CSc5ccccc5)c(S(=O)(=O)C(F)(F)F)c4)cc3)CC2)C1` (stereo partly drawn) [Compound 9, N-((4-(((R)-4-(1,4-oxazepan-4-yl)-1-(phenylthio)butan-2-yl)amino)-3-((trifluoromethyl)sulfonyl)phenyl)sulfonyl)-4-(4-(((4R)-4′-chloro-4-((4-(4-(4-((4-(2-(2,6-dioxopiperidin-3-yl)-1-oxoisoindolin-5-yl)piperazin-1-yl)methyl)piperidin-1-yl)butanoyl)piperazin-1-yl)methyl)-4-methyl-3,4,5,6-tetrahydro-[1,1′-biphenyl]-2-yl)methyl)piperazin-1-yl)benzamide], the EC50 in assay [1] is below 1 nM; with WI-38 NC, above 10000 nM; in assay [2], 10 to 100 nM; in assay [3] it was below 1 nM.

Consider `C[C@@]1(CN2CCN(C(=O)CN3CCC(CCN4CCN(c5ccc6c(c5)CN(C5CCC(=O)NC5=O)C6=O)CC4)CC3)CC2)CCC(c2ccc(Cl)cc2)=C(CN2CCN(c3ccc(C(=O)NS(=O)(=O)c4ccc(N[C@H](CCN5CCCOCC5)CSc5ccccc5)c(S(=O)(=O)C(F)(F)F)c4)cc3)CC2)C1` (stereo partly drawn) [Compound 10, N-((4-(((R)-4-(1,4-oxazepan-4-yl)-1-(phenylthio)butan-2-yl)amino)-3-((trifluoromethyl)sulfonyl)phenyl)sulfonyl)-4-(4-(((4R)-4′-chloro-4-((4-(2-(4-(2-(4-(2-(2,6-dioxopiperidin-3-yl)-1-oxoisoindolin-5-yl)piperazin-1-yl)ethyl)piperidin-1-yl)acetyl)piperazin-1-yl)methyl)-4-methyl-3,4,5,6-tetrahydro-[1,1′-biphenyl]-2-yl)methyl)piperazin-1-yl)benzamide], for which the concentration giving a half-maximal response (EC50) in assay [1] was below 1 nM; with WI-38 NC it was above 10000 nM; in assay [2], 10 to 100 nM; in assay [3], below 1 nM.

On to `C[C@@]1(CN2CCC(CN3CCN(CC#Cc4ccc5c(c4)CN(C4CCC(=O)NC4=O)C5=O)CC3)CC2)CCC(c2ccc(Cl)cc2)=C(CN2CCN(c3ccc(C(=O)NS(=O)(=O)c4ccc(N[C@H](CCN5CCCOCC5)CSc5ccccc5)c(S(=O)(=O)C(F)(F)F)c4)cc3)CC2)C1` (stereo partly drawn) [Compound 13, N-((4-(((R)-4-(1,4-oxazepan-4-yl)-1-(phenylthio)butan-2-yl)amino)-3-((trifluoromethyl)sulfonyl)phenyl)sulfonyl)-4-(4-(((4R)-4′-chloro-4-((4-((4-(3-(2-(2,6-12 dioxopiperidin-3-yl)-1-oxoisoindolin-5-yl)prop-2-yn-1-yl)piperazin-1-yl)methyl)piperidin-1-yl)methyl)-4-methyl-3,4,5,6-tetrahydro-[1,1′-biphenyl]-2-yl)methyl)piperazin-1-14 yl)benzamide], for which the concentration giving a half-maximal response (EC50) in assay [1] is below 1 nM; with WI-38 NC it was above 10000 nM; in assay [2] it was 1 to 10 nM; in assay [3], below 1 nM.

Consider `CC1(CN2CCN(C(=O)CN3CCN(C(=O)CCCCNc4cccc5c4C(=O)N(C4CCC(=O)NC4=O)C5=O)CC3)CC2)CCC(c2ccc(Cl)cc2)=C(CN2CCN(c3ccc(C(=O)NS(=O)(=O)c4ccc(N[C@H](CCN5CCOCC5)CSc5ccccc5)c(S(=O)(=O)C(F)(F)F)c4)cc3)CC2)C1` (stereo partly drawn) [Compound 14, 4-(4-((4′-chloro-4-((4-(2-(4-(5-((2-(2,6-dioxopiperidin-3-yl)-1,3-dioxoisoindolin-4-yl)amino)pentanoyl)piperazin-1-yl)acetyl)piperazin-1-yl)methyl)-4-methyl-3,4,5,6-tetrahydro-[1,1′-biphenyl]-2-yl)methyl)piperazin-1-yl)-N-((4-(((R)-4-morpholino-1-(phenylthio)butan-2-yl)amino)-3-((trifluoromethyl)sulfonyl)phenyl)sulfonyl)benzamide], for which the concentration giving a half-maximal response (EC50) is below 1 nM in assay [1], above 10000 nM in the assay with WI-38 NC, 10000 to 100000 nM in assay [2] and below 1 nM in assay [3].
